The record followed here is US20040092521A1, “Bicyclic-substituted amines as histamine-3 receptor ligands” (priority 2002, published 2004).

Each structure is given as a SMILES string. Counter-ions that a name gives are not always drawn.

`C[C@@H]1CCCN1CCc1ccc2cc(Br)ccc2c1` (as salt: HCl) [Example 2, (2R)-1-[2-(6-bromo-2-naphthyl)ethyl]-2-methylpyrrolidine] displayed a melting point of 247.3 to 250.7 °C. `C[C@@H]1CCCN1Cc1ccc2cc(-c3ccc(C#N)cc3)ccc2c1` (as salt: hydrochloride) [Example 6, 4-(6-{[(2R)-2-methyl-1-pyrrolidinyl]methyl}-2-naphthyl)benzonitrile]: the melting point was 212.6 to 213.6 °C. The value for `C[C@@H]1CCCN1CCc1ccc2cc(-c3ccc(F)cc3)ccc2n1` (as salt: hydrochloride) [Example 43, 6-(4-fluorophenyl)-2-{2-[(2R)-2-methyl-1-pyrrolidinyl]ethyl}quinoline] was 145 °C; that for `COc1ccc(-c2ccc3nc(CCN4CCC[C@H]4C)ccc3c2)cc1` (as salt: hydrochloride) [Example 46, 6-(4-methoxyphenyl)-2-{2-[(2R)-2-methyl-1-pyrrolidinyl]ethyl}quinoline] was 165 °C (dec.). The value for `C[C@@H]1CCCN1CCc1ccc2cc(-c3ccc(C(F)(F)F)cc3)ccc2n1` (as salt: hydrochloride) [Example 47, 2-{2-[(2R)-2-methyl-1-pyrrolidinyl]ethyl}-6-[4-(trifluoromethyl)phenyl]quinoline] was 143 to 145 °C (dec.); that for `C[C@@H]1CCCN1CCc1ccc2cc(C(=O)c3cccc(F)c3)ccc2n1` (as salt: hydrochloride) [Example 50, (3-fluorophenyl)(2-{2-[(2R)-2-methyl-1-pyrrolidinyl]ethyl}-6-quinolinyl)methanone] was 162 to 164 °C (dec.); that for `C[C@@H]1CCCN1CCc1ccc2cc(-c3cccnc3)ccc2n1` (as salt: hydrochloride) [Example 51, 2-{2-[(2R)-2-methyl-1-pyrrolidinyl]ethyl}-6-(3-pyridinyl)quinoline] was 205 to 207 °C. The value for `C[C@@H]1CCCN1CCc1ccc2cc(-c3ccc(C#N)cc3)ccc2n1` (as salt: tartrate) [Example 42, 4-(2-{2-[(2R)-2-methyl-1-pyrrolidinyl]ethyl}-6-quinolinyl)benzonitrile] was 164 °C. As to `C[C@@H]1CCCN1CCc1ccc2cc(-c3cccc(C#N)c3)ccc2c1` [Example 7, 3-(6-{2-[(2R)-2-methyl-1-pyrrolidinyl]ethyl}-2-naphthyl)benzonitrile], the melting point was in the range of 228.5 to 231.6 °C.
